Source: patent US20220387405A1, “METHODS OF TREATMENT WITH N-((R)-1-(3-CHLOROPYRIDIN-2-YL)-2,2,2-TRIFLUOROETHYL)-2-((S)-2,6-DIOXOPIPERIDIN-3-YL)-1-OXOISOINDOLINE-5-CARBOXAMIDE” (CELGENE CORPORATION, priority 2021, published 2022)

How the values were obtained:
[1] = tested on: CD34+ cells from BM samples of healthy donors; assay: Liquid culture of CD34+ cells from healthy donors (FACS); assay type: cell-based, human
Protocol: CD34^+ cells isolated from BM samples of 3 TP53 WT AML donors and 3 healthy donors were treated with increasing concentrations of Compound 1 in liquid culture at times ranging from 4 hours to 5 days. […] Acute myeloid leukemia blasts sustained CK1α degradation up to 5 days in culture as assessed by fluorescence-activated cell sorting (FACS) analysis. Strikingly, p53 stabilization was sustained longer in leukemic cells (up to 48 hours) compared with normal BM cells (for 24 hours).

[2] = tested on: leukemic progenitors from BM samples of AML patients; assay: Colony forming assay (CFU-GM) with BM samples of AML patients; assay type: cell-based, human; conditions: TP53 WT AML samples (14 of 18), compared to vehicle control
Protocol: Ex vivo activity of Compound 1 was evaluated in normal and leukemic progenitors from BM samples of 25 AML patients using colony forming assays. […] The effect of Compound 1 on CK1α degradation, p53 accumulation, and activation is concentration- and time-dependent.

[3] = Dose toxicity and toxicokinetics study in rats; assay type: in vivo; conditions: for AUC / Cmax: both sexes; for AUC / Cmax / NOAEL: rat, in vivo, po; for NOAEL: female, oral gavage, read-out: NOAEL (females)
Protocol: Additionally, control animals were dosed with a vehicle using a combination of both dosing regimens. Recovery of test article-related effects was evaluated during a 4-week recovery period.
Animals in Regimen 1 were dosed for 7 consecutive days in each 4-week cycle for 2 cycles (0.3 or 3 mg/kg on Days 1-7 and 29-35), whereas animals in Regimen 2 were dosed twice weekly for 4 weeks (0.5 or 5 mg/kg on Days 1, 4, 8, 11, 15, 18, 22 and 25). End of dosing necropsy was performed on the day after the last dose administration. A 4-week recovery period was included to assess reversibility of findings.

[4] = tested on: leukemic cells from TP53 WT AML patients; assay: PharmaFlow test (Vivia), cytotoxic effect on leukemic cells in AML patient BM samples; assay type: cell-based, human
CYP1A2 = target: T1, CYP1A2 (Homo sapiens, UniProt P05177); assay: CYP inhibition in human liver microsomes, CYP1A2; assay type: in vitro ADME
T1 construct: In human liver microsomes; from tissue; host or cells: human liver microsomes
T1 sequence (P05177 whole entry): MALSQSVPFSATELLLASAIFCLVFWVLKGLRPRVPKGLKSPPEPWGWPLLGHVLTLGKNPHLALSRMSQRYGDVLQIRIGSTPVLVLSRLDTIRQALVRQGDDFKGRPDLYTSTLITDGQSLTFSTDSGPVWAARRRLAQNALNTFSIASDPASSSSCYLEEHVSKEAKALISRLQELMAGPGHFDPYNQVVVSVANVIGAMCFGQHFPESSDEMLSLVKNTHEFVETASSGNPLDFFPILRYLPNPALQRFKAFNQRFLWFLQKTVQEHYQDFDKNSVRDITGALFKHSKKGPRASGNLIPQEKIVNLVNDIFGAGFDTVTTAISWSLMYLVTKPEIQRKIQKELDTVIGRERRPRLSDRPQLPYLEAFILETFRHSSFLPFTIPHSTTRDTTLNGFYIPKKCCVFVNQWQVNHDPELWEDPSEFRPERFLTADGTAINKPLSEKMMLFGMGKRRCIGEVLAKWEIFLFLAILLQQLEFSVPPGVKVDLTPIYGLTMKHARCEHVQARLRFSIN

[5] = GLP repeat-dose toxicity and toxicokinetics study in monkeys; assay type: in vivo, cynomolgus monkeys; conditions: for AUC / Cmax: plasma, po
Protocol: Cardiovascular assessments (electrocardiograms [ECGs] and heart rates) were conducted in conscious cynomolgus monkeys as part of the Good Laboratory Practice (GLP)-compliant repeat dose toxicity study. In this study, Compound 1 was administered by oral gavage to Cynomolgus monkeys (5/sex/group) in Groups 1-5 at doses of 0 (0.5% (w/v) Methylcellulose, 0.25% (v/v) Tween 80 in 50 mM citrate buffer pH 3), 0.03, 0.1, 0.1 and 0.3 mg/kg, respectively, intermittently using 2 different dosing regimens. Groups 2 and 3 animals were dosed for 7 consecutive days in each 4-week cycle for 2 cycles (Regimen 1: on Days 1-7 and 29-35), whereas Groups 4 and 5 animals were dosed twice weekly for 4 weeks (Regimen 2: on Days 1, 4, 8, 11, 15, 18, 22 and 25). A combination of both dosing regimens (Days 1-7, 8, 11, 15, 18, 22, 25, and 29-35) was used for administration of the vehicle to the control animals. A 9-lead ECG recording was made on all animal during pretest and on all animals in Groups 4 and 5 on Day 22 (1 hour postdose±15 minutes) and on all animals in Groups 1, 2 and 3 during Week 5 (1 hour postdose±15 minutes) using standard limb leads I, II and III; augmented leads aVR, aVL and aVF as well as chest leads MV1, MV2 and MV3. All ECGs were performed while the unanesthetized animal was sitting in an up-right position in a restraint chair. Qualitative (visual inspection) and quantitative assessments including heart rates and PR, QRS, RR, QT, and QTc intervals were performed. QTc was calculated using Bazett's formula.
In a repeat-dose toxicity study in monkeys, Compound 1 was administered by oral gavage intermittently using 2 different dosing regimens. Animals in Regimen 1 were dosed for 7 consecutive days in each 4-week cycle for 2 cycles (0.03 or 0.1 mg/kg on Days 1-7 and 29-35), whereas animals in Regimen 2 were dosed twice weekly for 4 weeks (0.1 or 0.3 mg/kg on Days 1, 4, 8, 11, 15, 18, 22 and 25).
End of dosing necropsy was performed on the day after the last dose administration. A 4-week recovery period was included to assess reversibility of findings. Administration of Compound 1 was associated with mortality at 0.1 mg/kg using Regimen 1 during the recovery phase. Three animals (2 males and 1 female) were euthanized for welfare reasons and one female was found dead due to reduction (marked to severe) in BM cellularity resulting in severe leukopenia and likely bacteremia, as well as in severe thrombocytopenia with disseminated petechial hemorrhage.

MV4-11 AML cell line = assay: Compound washout experiment in MV4-11 (CK1α, p53 and downstream events); assay type: cell-based; conditions: 0.3 μM for 12 hours followed by washout
CYP3A4/5 = assay: Enzymatic metabolism (enzyme identification); assay type: in vitro ADME
Text: Compound 1 underwent non-enzymatic hydrolysis, oxidation, N-dealkylation, glucuronidation and a combination of these pathways in hepatocytes of human and animal species. Although there were quantitative differences in the formation of Compound 1 metabolites across species, qualitatively all metabolites formed in human hepatocytes were also observed in hepatocytes and plasma of rats and/or monkeys, the two species used for nonclinical safety testing. Following multiple oral administrations of Compound 1 to rats and monkeys, Compound 1 was the predominant component in plasma of both species. The metabolites observed in plasma were similar to those observed in hepatocytes.

CYP2C8 = target: T2, CYP2C8 (Homo sapiens, UniProt P10632); assay: CYP inhibition in human liver microsomes, CYP2C8; assay type: in vitro ADME
T2 construct: In human liver microsomes; from tissue; host or cells: human liver microsomes
T2 sequence (P10632 whole entry): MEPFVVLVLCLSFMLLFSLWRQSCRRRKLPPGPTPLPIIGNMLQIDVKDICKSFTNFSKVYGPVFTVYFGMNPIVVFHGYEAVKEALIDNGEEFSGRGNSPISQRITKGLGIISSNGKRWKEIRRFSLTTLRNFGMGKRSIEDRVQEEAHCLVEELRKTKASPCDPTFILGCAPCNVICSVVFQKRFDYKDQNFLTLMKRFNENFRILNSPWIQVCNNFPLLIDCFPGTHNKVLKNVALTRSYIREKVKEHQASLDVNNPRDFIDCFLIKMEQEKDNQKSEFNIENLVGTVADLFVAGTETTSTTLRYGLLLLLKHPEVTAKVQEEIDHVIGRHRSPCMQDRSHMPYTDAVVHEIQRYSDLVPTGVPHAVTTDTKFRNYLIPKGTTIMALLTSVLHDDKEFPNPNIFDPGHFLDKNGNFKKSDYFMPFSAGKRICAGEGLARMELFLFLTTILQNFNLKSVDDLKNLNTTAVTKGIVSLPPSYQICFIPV

CYP2B6 = target: T3, CYP2B6 (Homo sapiens, UniProt P20813); assay: CYP inhibition in human liver microsomes, CYP2B6; assay type: in vitro ADME
T3 construct: In human liver microsomes; from tissue; host or cells: human liver microsomes
T3 sequence (P20813 whole entry): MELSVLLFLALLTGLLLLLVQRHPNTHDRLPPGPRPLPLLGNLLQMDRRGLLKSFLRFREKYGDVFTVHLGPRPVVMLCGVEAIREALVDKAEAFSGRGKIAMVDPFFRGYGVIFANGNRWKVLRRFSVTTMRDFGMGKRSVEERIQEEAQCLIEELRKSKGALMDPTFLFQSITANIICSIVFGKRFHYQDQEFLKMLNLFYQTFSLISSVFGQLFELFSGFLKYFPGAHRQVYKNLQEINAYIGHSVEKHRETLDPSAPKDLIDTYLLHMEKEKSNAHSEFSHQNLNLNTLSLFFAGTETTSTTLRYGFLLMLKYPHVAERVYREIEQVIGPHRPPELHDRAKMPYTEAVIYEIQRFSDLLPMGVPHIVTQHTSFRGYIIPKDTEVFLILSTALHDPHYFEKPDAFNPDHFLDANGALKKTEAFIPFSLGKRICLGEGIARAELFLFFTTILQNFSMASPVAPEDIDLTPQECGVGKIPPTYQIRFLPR

[6] = 0.3 mg/kg, Regimen 1, sexes combined
[7] = 0.5 mg/kg, Regimen 2, sexes combined
[8] = Regimen 2 (twice weekly for 4 weeks)
[9] = both sexes, cynomolgus monkey, 0.03 mg/kg, Regimen 1, sexes combined
[10] = both sexes, cynomolgus monkey, 0.1 mg/kg, Regimen 2, sexes combined

Question: For O=C1CC[C@H](N2Cc3cc(C(=O)N[C@H](c4ncccc4Cl)C(F)(F)F)ccc3C2=O)C(=O)N1 [Compound 1, N-((R)-1-(3-chloropyridin-2-yl)-2,2,2-trifluoroethyl)-2-((S)-2,6-dioxopiperidin-3-yl)-1-oxoisoindoline-5-carboxamide], which “duration of sustained p53 stabilization” value ([1]; normal BM cells) is on record?
Answer: 24 h

Question: What about the cellular outcome ([1]; normal cells) of the same compound?
Answer: Cycle arrest

Question: What about the “samples with inhibited formation of CFU-GM colonies” value [2] of the same compound?
Answer: 77.8%

Question: What about the “severely toxic dose in 10% of the animals (STD 10)” value ([3]; Regimen 1) of the same compound?
Answer: 0.3 mg/kg

Question: What about the “severely toxic dose in 10% of the animals (STD 10)” value ([3]; Regimen 2) of the same compound?
Answer: 0.5 mg/kg

Question: And the “NOAEL (males)” value ([3]; both regimens)?
Answer: not identified

Question: What about the AUC [3, 6] of the same compound?
Answer: 0.761 µg·h/mL

Question: What about the Cmax [3, 6] of the same compound?
Answer: 0.225 µg/mL

Question: And the AUC [3, 7]?
Answer: 1.2 µg·h/mL

Question: What about the Cmax [3, 7] of the same compound?
Answer: 0.263 µg/mL

Question: And the NOAEL ([3]; Regimen 1 (Days 1-7 and 29-35))?
Answer: 0.3 mg/kg

Question: And the NOAEL [3, 8]?
Answer: 0.5 mg/kg

Question: What about the IC50 ([4]; Homo sapiens) of the same compound?
Answer: 0.022 to 0.412 µM

Question: What about the “number of BM samples with sensitive leukemic cells” value ([4]; out of 9 AML patient BM samples) of the same compound?
Answer: 5

Question: What about the time-dependent inhibition (CYP1A2; CYP1A2, 30-minute preincubation with NADPH) of the same compound?
Answer: not a time-dependent inhibition

Question: And the inhibitory effect (CYP1A2; human liver microsomes, CYP1A2)?
Answer: ≤ 25%

Question: And the lethality ([5]; 0.1 mg/kg, Regimen 1, during the recovery phase)?
Answer: mortality

Question: And the “sex-combined mean maximum observed plasma concentration” value ([5]; 0.1 mg/kg/day, Regimen 1, Day 34)?
Answer: 31.9 ng/mL

Question: What about the “fold higher than anticipated human Cmax of 0.4 ng/mL” value ([5]; 0.1 mg/kg/day, Regimen 1, Day 34 vs human starting dose 0.1 mg/day) of the same compound?
Answer: approximately 80 fold

Question: And the “sex-combined mean maximum observed plasma concentration” value ([5]; 0.3 mg/kg/day, Regimen 2, Day 15)?
Answer: 62.6 ng/mL

Question: And the “fold higher than anticipated human Cmax of 0.4 ng/mL” value ([5]; 0.3 mg/kg/day, Regimen 2, Day 15 vs human starting dose 0.1 mg/day)?
Answer: ~157 fold

Question: And the “highest non-STD (HNSTD)” value ([5]; Regimen 1)?
Answer: 0.03 mg/kg

Question: What about the “highest non-STD (HNSTD)” value ([5]; Regimen 2) of the same compound?
Answer: 0.1 mg/kg

Question: And the NOAEL [5, 8]?
Answer: not identified

Question: And the NOAEL ([5]; both sexes, cynomolgus monkey, in vivo, Regimen 1 (Days 1-7 and 29-35), oral gavage, read-out: NOAEL)?
Answer: 0.03 mg/kg

Question: And the AUC [5, 9]?
Answer: 0.0514 µg·h/mL

Question: And the Cmax [5, 9]?
Answer: 0.00995 µg/mL

Question: And the AUC [5, 10]?
Answer: 0.173 µg·h/mL

Question: What about the Cmax [5, 10] of the same compound?
Answer: 0.0215 µg/mL

Question: And the “persistence of p53 downstream events (p21, phosphor-Ser139-Histone H2A.X, caspase 3 cleavage) after washout” value (MV4-11 AML cell line)?
Answer: at least 10 hours

Question: What about the enzymatic metabolism (CYP3A4/5) of the same compound?
Answer: primarily mediated by CYP3A4/5

Question: What about the time-dependent inhibition (CYP2C8; CYP2C8, 30-minute preincubation with NADPH) of the same compound?
Answer: not a time-dependent inhibition

Question: What about the IC50 (CYP2C8; human liver microsomes, CYP2C8) of the same compound?
Answer: > 30 µM

Question: What about the time-dependent inhibition (CYP2B6; CYP2B6, 30-minute preincubation with NADPH) of the same compound?
Answer: not a time-dependent inhibition

Question: And the inhibitory effect (CYP2B6; human liver microsomes, CYP2B6)?
Answer: ≤ 25%
